Experimental data as given in PubChem BioAssay (NCI).
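A five-concentration, 48-hour dose response in 96-well plates underlies each endpoint, interpolated linearly between surrounding concentrations. TGI: concentration producing complete growth inhibition.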

Key:
Assay in all cases: DTP human tumour cell line panel, 48 h
ACHN renal = tested on: ACHN renal
COLO 205 colon = tested on: COLO 205 colon
HCT-116 colon = tested on: HCT-116 colon
NCI-H23 lung = tested on: NCI-H23 lung
NCI-H460 lung = tested on: NCI-H460 lung
OVCAR-4 ovarian = tested on: OVCAR-4 ovarian
OVCAR-5 ovarian = tested on: OVCAR-5 ovarian
RXF 393 renal = tested on: RXF 393 renal
SR leukemia = tested on: SR leukemia
TK-10 renal = tested on: TK-10 renal

| SMILES | TGI (ACHN renal) [µM] | TGI (COLO 205 colon) [µM] | TGI (HCT-116 colon) [µM] | TGI (NCI-H23 lung) [µM] | TGI (NCI-H460 lung) [µM] | TGI (OVCAR-4 ovarian) [µM] | TGI (OVCAR-5 ovarian) [µM] | TGI (RXF 393 renal) [µM] | TGI (SR leukemia) [µM] | TGI (TK-10 renal) [µM] |
| --- | --- | --- | --- | --- | --- | --- | --- | --- | --- | --- |
| O=[N+]([O-])/C=C/c1cn(CCCCCn2cc(/C=C/[N+](=O)[O-])c3ccccc32)c2ccccc12 | 13.9 | > 46.1 | 0.824 | 16 | 17.4 | 7.1 | 32.3 | 1.35 | > 100 | 5.37 |
| O=c1c2c(nc3n1CCC3)sc1c(O)c(Br)ccc12 | 35.8 | 24.4 | 35.2 | 92.7 | 34.4 | 54.9 | 51.7 | > 100 | 54 | 60.5 |
| Cc1cn([C@H]2[C@@H](CO)C[C@H]2O)c(=O)[nH]c1=O | > 100 | > 100 | > 100 | > 100 | > 100 | > 100 | > 100 | > 100 | > 100 | > 100 |
| COc1ccc(-c2nc(-c3cnccn3)n(C3OC(CO)C(O)C(O)C3O)n2)cc1 (stereo not drawn) | – | > 100 | > 100 | > 100 | > 100 | > 100 | > 100 | > 100 | > 100 | > 100 |
| O=S(=O)(O)C1CCC(O)C2[N-]CCCC21.O=S(=O)(O)C1CCC(O)C2[N-]CCCC21.[Zn+2] (stereo not drawn) | > 100 | > 100 | > 100 | – | > 100 | > 100 | > 100 | > 100 | > 100 | > 100 |
| COC1=CC(=O)C2=C(C1=O)[C@H]1CC[C@]3(C)[C@@H](OC(C)=O)CC[C@H]3[C@@H]1CC2 | > 100 | > 100 | > 100 | > 100 | > 100 | 30.6 | > 100 | > 100 | > 100 | > 100 |
| N#CCCC1(CCC#N)CCCCCCC(CCC#N)(CCC#N)C(O)C1O (stereo not drawn) | > 100 | > 100 | > 100 | > 100 | > 100 | > 100 | > 100 | > 100 | > 100 | > 100 |
| CC(=O)O[C@H]1C(=O)N(c2cc3c4ccccc4ccc3c3ccccc23)[C@@H]1c1ccccc1 | 89.2 | 18.1 | 14.4 | 37.3 | > 100 | 49.5 | > 100 | 8.95 | 40.3 | 47.1 |
| CCN(CC)CCCCC1CCN(CC(=O)N2c3ccccc3NC(=O)CC2C)CC1 (stereo not drawn) | > 100 | > 100 | > 100 | > 100 | > 100 | > 100 | > 100 | > 100 | > 100 | > 100 |
| COC(=O)c1ccc(/C=C2\CCc3ccccc3C2=O)cc1 | > 100 | > 100 | > 100 | > 100 | > 100 | > 100 | > 100 | > 100 | > 100 | > 100 |
| CCN(CC)CCN(C)CCc1ccc(Br)cc1 | > 100 | 39.5 | > 100 | > 100 | > 100 | > 100 | > 100 | > 100 | > 100 | > 100 |
